Data reported in publication PMC8713164, “Development of a 1,2,4-Triazole-Based Lead Tankyrase Inhibitor: Part II” (Journal of Medicinal Chemistry, 2021).
In brackets after ≈: the same amount, converted by molar mass. Where two headings read alike, the source gives them in different places.

Key:
PARP4 = target: T1, PARP4 (Homo sapiens, UniProt Q9UKK3); test: PARP4 biochemical assay; settings: > under 50% inhibition
T1 construct: made in house
Protocol: (§1) All reactions were performed at ambient temperature.
(§2) The assay conditions for the other PARP enzymes were used as previously described.[39]

PARP2 = target: T2, PARP2 (Homo sapiens, UniProt Q9UGN5); test: PARP2 biochemical assay; settings: > under 50% inhibition
T2 construct: made in house
Protocol: as §1, §2

PARP1/2/3/4/10/12/14/15 = test: PARP enzyme panel, summary line of Table 5; type: biochemical; settings: one bound for all eight PARPs
Protocol: as §1, §2

human PXR = target: T3, human PXR (Homo sapiens, UniProt O75469); test: PXR assay (CYP induction); type: in vitro ADME; settings: highest concentration, 100 μM
T3 construct: Admescope, contract assay
Protocol: (§3) A safety panel (Cerep) of 44 selected targets (n = 2) including hERG Inhibition using 10 μM 24 was performed by Eurofins. Ames and CYP3A4 inhibition assays were performed by Cyprotex, and the PXR assay (CYP induction) was performed at Admescope. The PARP assays are described below.

Ames test = test: Ames test
Protocol: as §3

COLO 320DM cells [1] = test: real-time qRT-PCR of WNT/β-catenin target genes in COLO 320DM cells; type: cell-based, human; settings: dose-dependent
Protocol: (§4) After 5 days, the antiproliferative effect of compound treatment was measured at 490 nm. Mean value ± standard deviation (SD) for one representative experiment of more than three repeated assays, each with six replicates, are shown. […] (b) Representative immunoblots of cytoplasmic TNKS1/2, AXIN1, AXIN2, and cytoplasmic and nuclear transcriptionally active β-catenin (non-phospho) and β-catenin. […] For (b) and (c), control = 0.001% DMSO. (c) Real-time RT-qPCR analyses of WNT/β-catenin signaling target genes (AXIN2, DKK1, NKD1, and APCDD1). Boxplots show median, first and third quartiles, and maximum and minimum whiskers for combined data from three independent experiments with three replicates each. Dotted lines depict the control mean value = 1. For (a) and (c), analysis of variance (ANOVA) tests (Holm–Sidak method, versus control) are indicated by *** (p < 0.001) and * (p < 0.05), while ANOVA on ranks tests (Dunn’s method, versus control) are indicated by ^† (p < 0.05).

PARP12 = target: T4, PARP12 (Homo sapiens, UniProt Q9H0J9); test: PARP12 biochemical assay; settings: >>: no inhibition detected; concentration limited by DMSO tolerance
T4 construct: made in house
Protocol: as §1, §2

TNKS2 = target: T5, TNKS2 (Homo sapiens, UniProt Q9H2K2); test: TNKS2 biochemical assay (unreacted NAD+ fluorescence)
T5 construct: TNKS2 (residues 873–1162); made in house
T5 sequence (Q9H2K2 873-1162): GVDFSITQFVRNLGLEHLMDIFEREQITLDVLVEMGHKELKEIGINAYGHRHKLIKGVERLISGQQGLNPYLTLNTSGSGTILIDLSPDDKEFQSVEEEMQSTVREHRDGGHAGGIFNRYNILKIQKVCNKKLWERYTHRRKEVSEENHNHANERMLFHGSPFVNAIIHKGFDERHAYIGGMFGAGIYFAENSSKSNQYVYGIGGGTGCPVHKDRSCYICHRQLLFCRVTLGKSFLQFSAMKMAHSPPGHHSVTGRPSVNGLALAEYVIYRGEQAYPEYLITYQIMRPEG
Protocol: New compounds were prepared in half-log dilution series, and the reactions were carried out in quadruplicates with protein and compound controls to exclude the effect of compound autofluorescence. All reactions were performed at ambient temperature. TNKS1 (20 nM) or TNKS2 (5 nM) was incubated for 20 h in assay buffer (50 mM Bis-Tris propane (BTP), pH 7.0, 0.5 mM Tris(2-carboxyethyl)phosphine (TCEP), 0.01% Triton X-100) with compound and 10 μM or 500 nM NAD^+, respectively.

[2] = microsomal stability, mouse; type: in vitro ADME; settings: microsomes
Protocol: (§5) Kinetic solubility, microsomal stability, and plasma stability were determined following our internal protocol (Symeres). The Caco-2 and PPB determinations were performed by Cyprotex.

RKO cells = test: MTS colorimetric cell growth assay, RKO; type: cell-based, human
Protocol: as §4
(§6) Antiproliferative assays using colon cancer cell lines COLO 320DM and RKO were performed as previously described.[39]

[3] = mouse peroral pharmacokinetic analysis; type: in vivo; settings: mouse PO 5 mg/kg
Protocol: The pharmacokinetic analyses in mice were performed according to the standard protocols of Medicilon as previously described[21] following approval by local animal experiment authorities (Shanghai, China) and in compliance with FELASA guidelines and recommendations. Three IRC mice were used per treatment group: 5 mg/kg 24 in 5% DMSO, 50% PEG400 (both Sigma-Aldrich), and 45% saline as vehicle.

PARP14 = target: T6, PARP14 (Homo sapiens, UniProt Q460N5); test: PARP14 biochemical assay; settings: > under 50% inhibition
T6 construct: made in house
Protocol: as §1, §2

[4] = test system: Cerep Safety panel 44 targets; test: Cerep safety panel of 44 selected targets; settings: 10 μM
Protocol: as §3

COLO 320DM cells [5] = test: cells
Protocol: as §4, §6

in vitro = in vitro ADME; settings: human, Caco-2
Protocol: as §5

[6] = microsomal stability, dog; type: in vitro ADME; settings: microsomes
Protocol: as §5

WNT/β-catenin signaling = test: cellular (HEK293) WNT/β-catenin signaling luciferase reporter assay; type: cell-based, human; settings: for IC50: Homo sapiens
kinetic solubility = type: physicochemical; settings: PBS pH = 7
Protocol: as §5

PARP3 = target: T7, PARP3 (Homo sapiens, UniProt Q9Y6F1); test: PARP3 biochemical assay; settings: > under 50% inhibition
T7 construct: made in house
Protocol: The enzymatic assay measures unreacted NAD^+, which is chemically reacted into a fluorescent compound.[53] […] All reactions were performed at ambient temperature.
The assay conditions for the other PARP enzymes were used as previously described.[39] Reference compound OD336 behaved in this assay as previously reported.[28]

T1 sequence (Q9UKK3 whole entry): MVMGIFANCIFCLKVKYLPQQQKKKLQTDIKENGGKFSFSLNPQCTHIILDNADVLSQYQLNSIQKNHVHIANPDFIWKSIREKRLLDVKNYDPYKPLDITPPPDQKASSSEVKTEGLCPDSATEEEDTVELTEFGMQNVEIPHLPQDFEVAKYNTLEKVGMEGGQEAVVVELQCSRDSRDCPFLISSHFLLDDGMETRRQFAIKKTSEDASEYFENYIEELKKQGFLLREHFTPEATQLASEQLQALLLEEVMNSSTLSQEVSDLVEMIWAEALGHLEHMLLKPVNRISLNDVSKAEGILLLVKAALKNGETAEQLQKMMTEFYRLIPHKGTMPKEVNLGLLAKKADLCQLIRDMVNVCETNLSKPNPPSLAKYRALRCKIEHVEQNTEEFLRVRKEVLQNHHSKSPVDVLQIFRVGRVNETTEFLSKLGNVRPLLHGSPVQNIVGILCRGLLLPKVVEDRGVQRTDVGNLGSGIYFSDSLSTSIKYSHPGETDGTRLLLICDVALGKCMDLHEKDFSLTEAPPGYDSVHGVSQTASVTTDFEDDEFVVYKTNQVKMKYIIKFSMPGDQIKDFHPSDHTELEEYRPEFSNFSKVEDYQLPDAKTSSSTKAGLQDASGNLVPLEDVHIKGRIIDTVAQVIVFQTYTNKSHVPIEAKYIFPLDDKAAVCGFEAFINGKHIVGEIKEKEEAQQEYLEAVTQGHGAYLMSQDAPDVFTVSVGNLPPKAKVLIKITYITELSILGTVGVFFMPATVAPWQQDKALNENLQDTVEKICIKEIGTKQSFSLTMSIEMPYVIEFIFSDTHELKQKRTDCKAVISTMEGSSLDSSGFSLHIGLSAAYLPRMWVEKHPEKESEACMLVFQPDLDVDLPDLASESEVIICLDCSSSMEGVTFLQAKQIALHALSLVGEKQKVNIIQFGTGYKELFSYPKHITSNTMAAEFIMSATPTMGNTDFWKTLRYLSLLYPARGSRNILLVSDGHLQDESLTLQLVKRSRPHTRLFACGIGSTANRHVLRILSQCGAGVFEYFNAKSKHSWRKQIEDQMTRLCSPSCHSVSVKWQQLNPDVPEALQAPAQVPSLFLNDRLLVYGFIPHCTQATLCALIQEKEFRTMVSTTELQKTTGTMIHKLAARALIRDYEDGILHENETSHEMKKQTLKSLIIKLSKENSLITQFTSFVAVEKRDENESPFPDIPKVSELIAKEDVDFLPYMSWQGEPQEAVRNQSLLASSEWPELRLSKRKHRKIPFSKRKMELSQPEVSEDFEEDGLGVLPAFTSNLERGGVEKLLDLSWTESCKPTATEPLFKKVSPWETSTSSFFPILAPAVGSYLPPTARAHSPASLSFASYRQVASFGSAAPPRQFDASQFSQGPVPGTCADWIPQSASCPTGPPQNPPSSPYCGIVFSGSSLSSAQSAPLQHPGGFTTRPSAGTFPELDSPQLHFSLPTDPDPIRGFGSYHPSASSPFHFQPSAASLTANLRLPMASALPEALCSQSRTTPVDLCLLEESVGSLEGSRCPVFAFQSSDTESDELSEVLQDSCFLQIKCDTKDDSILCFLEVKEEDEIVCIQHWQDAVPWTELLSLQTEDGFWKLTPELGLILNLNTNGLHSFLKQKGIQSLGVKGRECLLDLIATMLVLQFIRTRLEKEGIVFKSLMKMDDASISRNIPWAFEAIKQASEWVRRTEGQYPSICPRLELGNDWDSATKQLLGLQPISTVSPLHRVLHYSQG
T2 sequence (Q9UGN5 whole entry): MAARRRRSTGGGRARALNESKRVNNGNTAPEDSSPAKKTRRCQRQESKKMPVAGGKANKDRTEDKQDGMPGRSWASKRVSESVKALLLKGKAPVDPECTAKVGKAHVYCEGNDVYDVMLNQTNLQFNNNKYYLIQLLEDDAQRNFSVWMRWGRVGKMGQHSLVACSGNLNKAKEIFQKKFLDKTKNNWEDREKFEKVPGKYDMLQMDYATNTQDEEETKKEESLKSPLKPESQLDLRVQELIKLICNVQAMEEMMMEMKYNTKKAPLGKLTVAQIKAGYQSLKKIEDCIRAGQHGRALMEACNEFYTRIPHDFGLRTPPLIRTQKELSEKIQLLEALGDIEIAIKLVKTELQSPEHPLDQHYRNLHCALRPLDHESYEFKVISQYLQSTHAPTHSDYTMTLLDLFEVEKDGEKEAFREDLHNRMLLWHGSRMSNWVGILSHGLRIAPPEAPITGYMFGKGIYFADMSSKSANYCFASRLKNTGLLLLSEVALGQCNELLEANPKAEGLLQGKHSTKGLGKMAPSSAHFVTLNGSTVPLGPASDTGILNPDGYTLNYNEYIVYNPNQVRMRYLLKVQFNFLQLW
T4 sequence (Q9H0J9 whole entry): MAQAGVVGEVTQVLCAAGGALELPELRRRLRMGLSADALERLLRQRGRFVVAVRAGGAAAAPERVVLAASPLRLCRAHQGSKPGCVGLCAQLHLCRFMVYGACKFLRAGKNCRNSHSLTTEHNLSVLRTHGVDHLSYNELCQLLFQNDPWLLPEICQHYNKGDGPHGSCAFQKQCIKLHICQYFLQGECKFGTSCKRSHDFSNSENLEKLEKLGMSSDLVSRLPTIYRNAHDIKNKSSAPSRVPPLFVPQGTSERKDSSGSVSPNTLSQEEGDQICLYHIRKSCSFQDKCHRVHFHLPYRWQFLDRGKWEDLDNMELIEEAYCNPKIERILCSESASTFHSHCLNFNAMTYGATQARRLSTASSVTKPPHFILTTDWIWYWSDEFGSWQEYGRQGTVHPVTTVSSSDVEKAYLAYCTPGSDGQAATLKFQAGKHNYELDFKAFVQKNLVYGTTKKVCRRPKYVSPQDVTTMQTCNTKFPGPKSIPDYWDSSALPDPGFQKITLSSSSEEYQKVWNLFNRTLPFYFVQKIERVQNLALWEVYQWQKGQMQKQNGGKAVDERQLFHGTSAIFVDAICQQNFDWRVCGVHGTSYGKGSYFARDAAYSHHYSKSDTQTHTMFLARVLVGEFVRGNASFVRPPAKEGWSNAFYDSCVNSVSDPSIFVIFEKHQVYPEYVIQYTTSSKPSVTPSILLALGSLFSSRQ
T3 sequence (O75469 whole entry): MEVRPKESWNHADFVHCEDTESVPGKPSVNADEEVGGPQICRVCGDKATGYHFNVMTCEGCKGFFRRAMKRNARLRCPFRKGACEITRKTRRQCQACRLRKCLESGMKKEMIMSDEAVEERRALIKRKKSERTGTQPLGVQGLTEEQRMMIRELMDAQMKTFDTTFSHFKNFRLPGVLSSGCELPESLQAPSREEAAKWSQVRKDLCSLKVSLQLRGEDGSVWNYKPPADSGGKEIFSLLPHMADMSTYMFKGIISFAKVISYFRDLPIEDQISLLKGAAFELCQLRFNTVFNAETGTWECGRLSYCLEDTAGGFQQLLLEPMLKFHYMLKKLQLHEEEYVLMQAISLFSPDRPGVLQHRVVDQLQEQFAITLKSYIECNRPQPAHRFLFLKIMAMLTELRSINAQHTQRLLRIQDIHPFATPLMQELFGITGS
T7 sequence (Q9Y6F1 whole entry): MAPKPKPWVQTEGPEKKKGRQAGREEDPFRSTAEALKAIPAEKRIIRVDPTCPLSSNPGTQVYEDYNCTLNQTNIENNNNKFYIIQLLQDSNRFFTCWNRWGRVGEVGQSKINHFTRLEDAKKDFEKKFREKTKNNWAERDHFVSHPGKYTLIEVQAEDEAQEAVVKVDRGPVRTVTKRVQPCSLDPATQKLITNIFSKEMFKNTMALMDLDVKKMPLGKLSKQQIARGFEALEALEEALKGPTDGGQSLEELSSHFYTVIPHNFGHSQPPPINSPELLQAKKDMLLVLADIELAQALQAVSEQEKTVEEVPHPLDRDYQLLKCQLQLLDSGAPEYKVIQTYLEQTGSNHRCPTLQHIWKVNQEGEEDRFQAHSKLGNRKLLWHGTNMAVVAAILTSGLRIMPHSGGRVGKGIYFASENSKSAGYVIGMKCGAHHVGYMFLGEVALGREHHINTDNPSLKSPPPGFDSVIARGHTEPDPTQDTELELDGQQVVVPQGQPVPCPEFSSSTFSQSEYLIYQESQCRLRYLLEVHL

For CCOc1ccc(-c2nnc([C@H]3C[C@H](NC(=O)c4cccc5nccnc45)C3)n2-c2ccccc2F)nc1 [Compound 24, N-(trans-3-(5-(5-Ethoxypyridin-2-yl)-4-(2-fluorophenyl)-4H-1,2,4-triazol-3-yl)cyclobutyl)quinoxaline-5-carboxamide], which IC50 (PARP4) is on record?
The IC50 was greater than 100000 nM.

What about the IC50 (PARP2) of the same compound?
Its IC50 is greater than 100000 nM.

What about the IC50 (PARP1/2/3/4/10/12/14/15) of the same compound?
Its IC50 is greater than 10000 nM.

What about the “CYP induction (human PXR)” value (human PXR) of the same compound?
Its value is “nonactivator ^b ^c”.

And the Ames test (Ames test)?
Its Ames test is “nongenotoxic”.

What about the “transcripts of WNT/β-catenin target genes AXIN2, DKK1, NKD1, APCDD1” value (COLO 320DM cells [1]) of the same compound?
Its value is “reduced levels”.

What about the IC50 (PARP12) of the same compound?
Its IC50 is greater than 10000 nM.

And the IC50 (TNKS2; IC50 TNKS2)?
Its IC50 is 1.8 nM.

And the IC50 (TNKS2; IC50 TNKS2, TNKS2 5 nM, 500 nM NAD+, 20 h, quadruplicates, 95% confidence intervals in parentheses, 24: averages of multiple independent measurements)?
The IC50 was 1.6 nM.

What about the “TNKS2 pIC50 ± SEM” value (TNKS2; TNKS2 5 nM, 500 nM NAD+, 20 h) of the same compound?
Its value is 2.0 (8.71 ± 0.069).

What about the IC50 (TNKS2; TNKS2 pIC50 ± SEM, TNKS2 5 nM, 500 nM NAD+, 20 h) of the same compound?
The IC50 was 1.62 nM.

And the IC50 (TNKS2; read-out: IC50 TNKS2)?
The IC50 was 2 nM.

And the microsomal CLint at 1 h [2]?
The microsomal CLint at 1 h was 22 µL/min/mg.

What about the “effect of treatment on RKO cell viability” value (RKO cells; APC wild-type control colon cancer line) of the same compound?
The value was “only modestly affected”.

What about the GI50 (RKO cells; Homo sapiens, RKO, 120 h, read-out: RKO cells GI50) of the same compound?
The GI50 was greater than 10000 nM.

What about the AUC(0-inf) at 24 h ([3]; IRC, in vivo) of the same compound?
The AUC(0-inf) at 24 h was 5040 ng·h/mL.

What about the AUC(0-t) ([3]; IRC, in vivo) of the same compound?
Its AUC(0-t) is 4940 ng·h/mL.

And the Cmax at 24 h ([3]; IRC, in vivo)?
The Cmax at 24 h was 1970 ng/mL.

What about the Tmax at 24 h ([3]; IRC, in vivo) of the same compound?
The Tmax at 24 h was 0.5 h.

What about the half-life at 24 h ([3]; IRC, in vivo) of the same compound?
Its half-life at 24 h is 1.5 h.

What about the MRT inf at 24 h ([3]; IRC, in vivo, read-out: MRT 0 → ∞) of the same compound?
Its MRT inf at 24 h is 2.39 h.

What about the CL [3] of the same compound?
Its CL is 16.5 mL/min/kg.

And the Vd [3]?
Its Vd is 2.15 L/kg.

What about the “peak value (Cmax) relative to that of 1” value [3] of the same compound?
The value was “about 60%”.

What about the IC50 (PARP14) of the same compound?
The IC50 was greater than 100000 nM.

And the “Cerep Safety panel 44 targets (overall result)” value [4]?
Its value is “clean”.

And the “Cerep Safety panel 44 targets inhibition, all targets” value ([4]; n = 2)?
The value was less than 50%.

And the GI50 (COLO 320DM cells [5]; Homo sapiens, COLO 320DM, 120 h, read-out: COLO 320DM cells GI50, MTS, 5 days)?
The GI50 was 10.1 nM.

What about the “COLO 320DM cells GI25” value (COLO 320DM cells [5]; MTS, 5 days) of the same compound?
The value was 2.5 nM.

And the GI50 (COLO 320DM cells [5]; read-out: COLO 320DM cells GI50, MTS, 5 days)?
Its GI50 is 10 nM.

And the Papp A→B at 2 h, 10 µM (in vitro)?
The Papp A→B at 2 h, 10 µM was 40.5 ×10⁻⁶ cm/s.

And the efflux ratio (in vitro)?
Its efflux ratio is 0.64.

What about the microsomal CLint at 1 h [6] of the same compound?
Its microsomal CLint at 1 h is 3.8 µL/min/mg.

What about the IC50 (WNT/β-catenin signaling; HEK293, read-out: HEK293 reporter assay pIC50 ± SEM (converted)) of the same compound?
The IC50 was 0.603 nM.

What about the IC50 (WNT/β-catenin signaling; HEK293, read-out: IC50 HEK293, HEK293 WNT/β-catenin signaling reporter assay, triplicates, 24: averages of multiple independent measurements) of the same compound?
The IC50 was 0.63 nM.

And the “efficacy in the cellular WNT/β-catenin signaling reporter assay relative to 1” value (WNT/β-catenin signaling; times higher than 1)?
Its value is “approximately 30 times”.

What about the solubility kinetic at 1 h (kinetic solubility) of the same compound?
The solubility kinetic at 1 h was 31 µM (≈ 15.8 µg/mL).

And the IC50 (PARP3)?
Its IC50 is greater than 100000 nM.
